Results from PMC5855764, “Analysis of Peptide Ligand Specificity of Different Insect Adipokinetic Hormone Receptors” (International Journal of Molecular Sciences, 2018).

Legend:
HylabAKHR = test: Aequorin-based bioluminescent calcium assay in CHO-WTA11 cells; format: cell-based, Hylobius abietis; conditions: peptide at micromolar concentrations; relative to cognate AKH
Excerpt: (§1) We expressed the different insect AKH receptors in Chinese hamster ovary (CHO) WTA11 cells, stably expressing apo-aequorin, a zeocin resistance gene and the promiscuous Gα16 subunit coupling to the phospholipase C and Ca^2+ signaling cascade (Euroscreen, Brussels, Belgium). The AKH from each species elicited a clear dose-dependent response in the bioluminescent calcium assay of its conspecific receptor, with an EC50 value in the low nanomolar range (Figure 3).
(§2) We analyzed the activity of the different AKH receptors using CHO-WTA11 cells, which contain a promiscuous Gα16 subunit that will induce an intracellular Ca^2+-increase upon receptor binding independent of the receptors’ natural signaling cascade (see also [48]). […]
(§3) For transfection of the cells (T75 flasks at 60–80% confluency), we dissolved 5 µg pcDNA3.1-receptor or empty pcDNA3.1 vector in 2.5 mL Opti-MEM® (Gibco) supplemented with 12.5 µL Plus™ Reagent of the Lipofectamine LTX Kit (Invitrogen) in 5 mL polystyrene round-bottom tubes. […] We monitored ligand-induced changes in intracellular Ca^2+ in the cells as described below. […]

AcypiAKHR = test: as above; format: cell-based, Acyrthosiphon pisum; conditions: peptide at micromolar concentrations; relative to cognate AKH
Excerpt: as §1, §2, §3

TricaAKHR = test: as above; format: cell-based, Tribolium castaneum; conditions: peptide at micromolar concentrations; relative to cognate AKH
Excerpt: as §1, §2, §3

[1] = system: seven different insect AKH receptors; test: Aequorin-based bioluminescent calcium assay in CHO-WTA11 cells, statements for all seven receptors together; format: cell-based; conditions: peptide at micromolar concentrations; all analysed AKHRs
Excerpt: as §1, §2, §3

Substance | receptor activation (HylabAKHR) | receptor activation (AcypiAKHR) | receptor activation (TricaAKHR) | AKHR activation [1]
pQ-TFQYSHGWTNamide [Crz, corazonin] | very limited activation | very limited activation | very limited activation | not able to activate any of the AKHRs that were analyzed to same extent as the endogenous AKHs
pQVTF--SRDWNAamide [ACP] |  |  |  | only very low levels of AKHR activation
